Test results reported in patent publication US4396607A, “Muramyl peptide derivatives and pharmaceutical compositions” (priority 1978, dated 1983).

Key:
[1] = tested on: ovalbumin; assay: Liposome forms: adjuvant character in guinea pigs, ovalbumin in aqueous solution; format: in vivo, Hartley male guinea pigs; conditions: ovalbumin 1 mg in foot pad
Description: The antigen was ovalbumin injected in aqueous solution in the foot pad of Hartley male guinea pigs at a volume of 0.1 ml in each rear paw, at the dose of 1 mg per guinea pig. The adjuvant preparations were injected simultaneously at the indicated doses. After three weeks, the animals received by the dermal route, in a volume of 0.1 ml, 0.025 mg of antigen. The diameter of the cutaneous reactions was measured after 48 hours. The animals were bled and the titers measured.

[2] = tested on: Ovalbumin; assay: Adjuvant character in emulsion (delayed hypersensitivity and antibodies); format: in vivo, Hartley guinea pigs; conditions: guinea pigs, 50 μg in AlF emulsion with 1 mg ovalbumin; for Log2 of the hemagglutinating titer: serum day 21; for HSR (diameter of the delayed hypersensitivity reaction): skin test day 18, read 48 hours later
Description: The tests were carried out on batches of 6 male Hartley guinea pigs of 350 g. The administration was done by intradermal injection into the plantar pad of each of the rear paws. Ovalbumin (constituting the antigen) in the amount of 1 mg is prepared in 0.1 ml of an emulsion of saline isotonic solution, in any oily phase constituted either by the Freund imcomplete adjuvant (FIA), or by the complete adjuvant (FCA) formed by the FIA to which is added 0.1 mg of whole Mycobacterium smegmatis cells. The compound according to the invention was administered in the amount of 0.05 mg added in the emulsion containing the FIA.
Eighteen days after this immunization, possible delayed hypersensitivity reactions to the antigen were sought by injecting by the intradermal route 0.01 mg of ovalbumin in the side of the animals, and 48 hours later, the reaction of the point of injection was observed. The diameter in millimeters of the reaction thus caused was measured.
Twenty-one days after the injection, the animals were bled. […]

[3] = tested on: bovine serum albumin (BSA); assay: Adjuvant character in the aqueous phase (antibody titer by passive hemagglutination); format: in vivo, Swiss mice; conditions: mice, 0.5 mg BSA with 0.1 mg tested substance SC in isotonic saline, booster day 30, titer at the 36th day
Description: (§1) Groups of 8 Swiss mice aged two months received, by sub-cutaneous injection (SC), 0.5 mg of antigen constituted by bovine serum albumin (BSA) with 0.1 mg or without the tested substance in an isotonic saline solution. This high dose of antigen, because it is situated at the limit of the paralyzing dose with respect to the immunitary response, results, for this reason, in a weak or zero response to the antigen only in the controls: It constitutes therefore a severe criterien to establish the activity of an adjuvant substance. Thirty days later, the mice received, by the same administrative route, a booster containing 0.1 mg of the same antigen.
(§2) The antibody level was determined, six days after the booster, by passive hemagglutination using sheep's red blood corpuscles treated with formalin and covered with the antigen studied according to the method described by A. A. HIRATA and M. W. BRANDISS (J. Immunol., 100, 641-648, 1968).
The antibody titer, represented by the maximum serum dilution agglutinating a given amount of sheep corpuscles, reaches a maximum at the 36th day and is established in the following manner: […]

[4] = Toxicity (lethal dose 50) by parenteral administration in the adrenalectomised mouse; format: in vivo, mice
Description: The toxicity of the products according to the invention was investigated by parenteral administration in mice. It was observed that the toxic doses were of an order of magnitude very much higher than that of the doses at which these products manifest their activity. Thus the lethal dose 50 of the products according to the invention tested was higher than 5 mg/kg of animal in the adrenalectomised mouse, whose sensitivity to endotoxins is well-known.

[5] = tested on: Klebsiella pneumoniae; assay: Anti-infectious activity with respect to Klebsiella; format: in vivo; conditions: mice, i.v. treatment 24h before 2 × 10^4 bacteria i.m.
Description: The survival of groups of inoculated mice under the above conditions and treated by means of the products according to the invention was followed.
The infecting dose was 2.10^4 Klebsiella; it was administered by the intramuscular route.
The administration of the tested product was carried out by the intravenous route in 0.2 ml of apyrogenic physiological solution, the controls receiving the solution alone. It was carried out 24 hours before the inoculation.
The percentage protection indicated is a difference of the percentages of survivors of the treated group with respect to the control group.

[6] = tested on: Limulus amoebocyte lysate; assay: Limulus test (endotoxic type activity); conditions: gel formation after 20 minutes at 37° C.
Description: For this purpose, 0.1 ml of the Limulus amoebocyte lysate preparation (marketed by the MALLINCKRODT Company, at St. LOUIS, U.S.A.) was mixed with an equal volume of the tested product at various concentrations in solution in apyrogenic distilled water. The vessels used were also made apyrogenic by dry heating in the oven, at 180° C., for 2 hours.
After incubating the mixture for 20 minutes at 37° C. in tubes, the formation of gel characteristics of the presence of endotoxin was estimated.

[7] = tested on: BSA; assay: Liposome forms: adjuvant character in mice, BSA as antigen; format: in vivo; conditions: 10 μg
Description: as §1, §2
The series of tests was carried out on mice under the same conditions as indicated in (3)(a), using BSA as antigen.

[8] = tested on: Klebsiella; assay: Liposome forms: anti-Klebsiella activity (intravenous infection); format: in vivo; conditions: mice, i.v. treatment at D - 1, 1.5.10^3 Klebsiella i.v.
Description: Under the previously described conditions, with the exception of the infection produced by the intravenous injection of 1.5.10^3 Klebsiella, the tests are renewed to determine the anti-infectious action. The administrations in the form of solution and of liposome were prepared.

[9] = tested on: Listeria monocytogenes; assay: Liposome forms: anti-Listeria activity; format: in vivo; conditions: mice, 1.10^3 Listeria i.v.
Description: The tests were carried out under the conditions of (5), using a dose of Listeria monocytogen, known to cause typically a cellular type infection.
The treatment of the mice and the inoculation were carried out by the intravenous route. The products were injected in the liposome form at the indicated doses. The controls only received isotonic solution.
The dose of Listeria administered was, in all the tests, 1.10^3 cells.
The tests whose results are given below were carried out by varying the interval of time separating the treatment of inoculation from the Listeria monocytogenes (either 1, either 4, or 8 days). The number of surviving mice at the 5th and at the 10th day following inoculation was followed, and the percentage protection determined as for the preceding tests.

[10] = Liposome forms: toxicity in the adrenalectomized mouse; format: in vivo; conditions: groups of six mice, 100 μg
Description: Pharmacological tests similar to the preceding ones were reproduced with MDP, MDP-L-Ala-eicosyl-ester and MDP-L-Ala-glyceryl-mycolate comparing the effects of administration in liposome form with those obtained for products in solution and with liposomes without muramyl-peptide.
The liposomes were prepared in the manner described above.
The products, the doses administered and their effect on the mortality of groups of six mice are indicated below.

[11] = tested on: ovalbumin; assay: Liposome forms: adjuvant character in Wistar rats, ovalbumin; format: in vivo; conditions: ovalbumin 0.5 mg s.c., 200 μg
Description: The antigen was ovalbumin injected by the subcutaneous route in male Wistar rats in a volume of 0.5 ml at the dose of 0.5 mg. The adjuvant preparations were injected simultaneously, at the dose indicated. At day 20, the animals received a booster of 0.5 mg of antigen alone by the same route. The serums were drawn and tested under the same conditions as in the mouse with the appropriate antigen.

[12] = i.v. treatment at D - 1, dose 100 μg
[13] = i.v. treatment at D - 4, dose 100 μg
[14] = i.v. treatment at D - 8, dose 100 μg

## CCCCCCCCCCCCCCCCCCCCOC(=O)[C@H](C)NC(=O)CC[C@@H](NC(=O)[C@H](C)NC(=O)[C@@H](C)O[C@H]1[C@H](O)[C@@H](CO)OC(O)[C@@H]1NC(C)=O)C(N)=O (stereo partly drawn) [MDP--L--Ala--eicosyl--ester, eicosyl ester of N-acetyl-muramyl-L-alanyl-D-isoglutamine-L-alanine]
[1]; 200 μg
  Log2 of the hemagglutinating titer: 7.33 ± 1.51
[1]; 200 μg, read after 48 hours
  HSR (diameter of the cutaneous reactions; in parentheses number of animals showing the reaction): 0
[2]
  Log2 of the hemagglutinating titer: 11.25 ± 1.14
  HSR (diameter of the delayed hypersensitivity reaction): 6 ± 4 millimeters
[3]
  Log2 hemagglutinating titer: 7.11 ± 2.03
[4]
  lethal dose 50: higher than 5 mg/kg
[5]; dose per mouse 10
  % of protection: 46%
  Number of survivors at day 3: 18
  Number of survivors at day 5: 14
  Number of survivors at day 8: 14
[5]; dose per mouse 100
  % of protection: 70%
  Number of survivors at day 3: 23
  Number of survivors at day 5: 23
  Number of survivors at day 8: 20
[6]
  Limulus test result (concentration of the tested product): 10 µg/mL
[7]
  Log2 of the hemagglutinating titer: 3.64 ± 1.15
[8]; 1 μg
  % of protection: 25%
  Number of survivors at D + 3: 4
  Number of survivors at D + 5: 4
  Number of survivors at D + 8: 4
[8]; 10 μg
  % of protection: 31%
  Number of survivors at D + 3: 13
  Number of survivors at D + 5: 9
  Number of survivors at D + 8: 9
[8]; 100 μg
  % of protection: 63%
  Number of survivors at D + 3: 14
  Number of survivors at D + 5: 14
  Number of survivors at D + 8: 14
[9]; [12]
  % of protection: 0%
  Number of survivors D + 5: 3
  Number of survivors D + 10: 0
[9]; [13]
  % of protection: 0%
  Number of survivors D + 5: 4
  Number of survivors D + 10: 4
[9]; [14]
  % of protection: 0%
  Number of survivors D + 5: 2
  Number of survivors D + 10: 2
[10]
  Number of dead mice: 0/6

## N-acetyl-muramyl-L-alanyl-D-isoglutaminyl-L-alanylglyceryl-mycolate [MDP--L--Ala--glyceryl--mycolate]
[11]
  Log2 of the hemagglutinating titer: 7.64 ± 1.90
[1]; dose not given
  HSR (diameter of the cutaneous reactions): 0
  Log2 of the hemagglutinating titer: 8.64 ± 1.83
[2]
  Log2 of the hemagglutinating titer: 12.77 ± 0.83
  HSR (diameter of the delayed hypersensitivity reaction): 21± 3 millimeters
[3]
  Log2 hemagglutinating titer: 7.47 ± 1.17
[4]
  lethal dose 50: higher than 5 mg/kg
[5]; dose per mouse 10
  % of protection: 33%
  Number of survivors at day 3: 5
  Number of survivors at day 5: 4
  Number of survivors at day 8: 4
[5]; dose per mouse 100
  % of protection: 79%
  Number of survivors at day 3: 23
  Number of survivors at day 5: 23
  Number of survivors at day 8: 23
[7]
  Log2 of the hemagglutinating titer: 2.07 ± 1.13
[8]; 1 μg
  % of protection: 0%
  Number of survivors at D + 3: 2
  Number of survivors at D + 5: 2
  Number of survivors at D + 8: 2
[8]; 10 μg
  % of protection: 25%
  Number of survivors at D + 3: 9
  Number of survivors at D + 5: 8
  Number of survivors at D + 8: 8
[8]; 100 μg
  % of protection: 63%
  Number of survivors at D + 3: 8
  Number of survivors at D + 5: 7
  Number of survivors at D + 8: 7
[9]; [12]
  % of protection: 0%
  Number of survivors D + 5: 3
  Number of survivors D + 10: 2
[9]; [13]
  % of protection: 0%
  Number of survivors D + 5: 1
  Number of survivors D + 10: 0
[9]; [14]
  % of protection: 0%
  Number of survivors D + 5: 1
  Number of survivors D + 10: 0
[10]
  Number of dead mice: 0/6
